pIC50: −log10 of the molar value.
System: K-562 leukemia growth, % test/control
Assay: Anticancer human tumor K-562 cell line growth inhibition;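 on viability, T/C: 100% = DMSO vehicle wells and lower values mean fewer viable cells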
Conditions: spheroids with HUVEC and MSC; for pIC50: curve of first compound; for viability, T/C: stronger effect = lower value
Method in brief: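 Complex spheroids of tumor cells with HUVEC and human MSCs, exposed to iadademstat combined with other agents. Each agent tested in half-log steps from near clinical Cmax (else 10 microM top), DMSO ≤0.25%.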

[1] = second compound 0.1 µM, first compound 0.00949 µM
[2] = second compound 0.1 µM, first compound 0.03 µM
[3] = second compound 0.1 µM, first compound 0.0949 µM
[4] = second compound 0.1 µM, first compound 0.3 µM
[5] = second compound 0.1 µM, first compound 0.949 µM
[6] = second compound 0.1 µM, first compound 3 µM
[7] = second compound 0.316 µM, first compound 0.00949 µM
[8] = second compound 0.316 µM, first compound 0.03 µM
[9] = second compound 0.316 µM, first compound 0.0949 µM
[10] = second compound 0.316 µM, first compound 0.3 µM
[11] = second compound 0.316 µM, first compound 0.949 µM
[12] = second compound 0.316 µM, first compound 3 µM
[13] = second compound 1 µM, first compound 0.00949 µM
[14] = second compound 1 µM, first compound 0.03 µM
[15] = second compound 1 µM, first compound 0.0949 µM
[16] = second compound 1 µM, first compound 0.3 µM
[17] = second compound 1 µM, first compound 0.949 µM
[18] = second compound 1 µM, first compound 3 µM
[19] = second compound 3.16 µM, first compound 0.00949 µM
[20] = second compound 3.16 µM, first compound 0.03 µM
[21] = second compound 3.16 µM, first compound 0.0949 µM
[22] = second compound 3.16 µM, first compound 0.3 µM
[23] = second compound 3.16 µM, first compound 0.949 µM
[24] = second compound 3.16 µM, first compound 3 µM
[25] = second compound 10 µM, first compound 0.00949 µM
[26] = second compound 10 µM, first compound 0.03 µM
[27] = second compound 10 µM, first compound 0.0949 µM
[28] = second compound 10 µM, first compound 0.3 µM
[29] = second compound 10 µM, first compound 0.949 µM
[30] = second compound 10 µM, first compound 3 µM

COc1cc(Nc2ncc3c(n2)-c2ccc(Cl)cc2C(c2c(F)cccc2OC)=NC3)ccc1C(=O)O + NC1CC1c1ccc(-c2cccc(O)c2)cc1
pIC50 (second compound 0.1 µM): > 8.50 | pIC50 (second compound 0.316 µM): > 8.50 | pIC50 (second compound 1 µM): > 8.50 | pIC50 (second compound 3.16 µM): > 8.50 | pIC50 (second compound 10 µM): > 8.50 | viability, T/C (second compound 0.1 µM, first compound 0.00316 µM): 31.1% | viability, T/C (second compound 0.1 µM, first compound 0.01 µM): 35.4% | viability, T/C (second compound 0.1 µM, first compound 0.0316 µM): 35.4% | viability, T/C (second compound 0.1 µM, first compound 0.1 µM): 27.7% | viability, T/C (second compound 0.1 µM, first compound 0.316 µM): 11.1% | viability, T/C (second compound 0.1 µM, first compound 1 µM): 5.75% | viability, T/C (second compound 0.316 µM, first compound 0.00316 µM): 22.8% | viability, T/C (second compound 0.316 µM, first compound 0.01 µM): 27.5% | viability, T/C (second compound 0.316 µM, first compound 0.0316 µM): 27.8% | viability, T/C (second compound 0.316 µM, first compound 0.1 µM): 18.3% | viability, T/C (second compound 0.316 µM, first compound 0.316 µM): 8.22% | viability, T/C (second compound 0.316 µM, first compound 1 µM): 4.56% | viability, T/C (second compound 1 µM, first compound 0.00316 µM): 20.2% | viability, T/C (second compound 1 µM, first compound 0.01 µM): 24.4% | viability, T/C (second compound 1 µM, first compound 0.0316 µM): 22.4% | viability, T/C (second compound 1 µM, first compound 0.1 µM): 13.9% | viability, T/C (second compound 1 µM, first compound 0.316 µM): 6.56% | viability, T/C (second compound 1 µM, first compound 1 µM): 4.05% | viability, T/C (second compound 3.16 µM, first compound 0.00316 µM): 15.5% | viability, T/C (second compound 3.16 µM, first compound 0.01 µM): 21% | viability, T/C (second compound 3.16 µM, first compound 0.0316 µM): 21.4% | viability, T/C (second compound 3.16 µM, first compound 0.1 µM): 14% | viability, T/C (second compound 3.16 µM, first compound 0.316 µM): 6.72% | viability, T/C (second compound 3.16 µM, first compound 1 µM): 4.65% | viability, T/C (second compound 10 µM, first compound 0.00316 µM): 10% | viability, T/C (second compound 10 µM, first compound 0.01 µM): 16.6% | viability, T/C (second compound 10 µM, first compound 0.0316 µM): 20.3% | viability, T/C (second compound 10 µM, first compound 0.1 µM): 11.9% | viability, T/C (second compound 10 µM, first compound 0.316 µM): 6.15% | viability, T/C (second compound 10 µM, first compound 1 µM): 3.42%

NS(=O)(=O)OCC1CC(n2ccc3c(NC4CCc5ccccc54)ncnc32)CC1O (stereo not given) + NC1CC1c1ccc(-c2cccc(O)c2)cc1
pIC50 (second compound 0.1 µM): > 8.02 | pIC50 (second compound 0.316 µM): > 8.02 | pIC50 (second compound 1 µM): > 8.02 | pIC50 (second compound 3.16 µM): > 8.02 | pIC50 (second compound 10 µM): > 8.02 | viability, T/C [1]: 50.7% | viability, T/C [2]: 32.8% | viability, T/C [3]: 37.7% | viability, T/C [4]: 19.2% | viability, T/C [5]: 11.2% | viability, T/C [6]: 4.04% | viability, T/C [7]: 47% | viability, T/C [8]: 29.9% | viability, T/C [9]: 32% | viability, T/C [10]: 16.3% | viability, T/C [11]: 10.3% | viability, T/C [12]: 3.18% | viability, T/C [13]: 46.8% | viability, T/C [14]: 27.1% | viability, T/C [15]: 32.8% | viability, T/C [16]: 14.8% | viability, T/C [17]: 10.3% | viability, T/C [18]: 3.44% | viability, T/C [19]: 45.6% | viability, T/C [20]: 25.7% | viability, T/C [21]: 30.2% | viability, T/C [22]: 13.2% | viability, T/C [23]: 8.49% | viability, T/C [24]: 1.8% | viability, T/C [25]: 30.5% | viability, T/C [26]: 19.8% | viability, T/C [27]: 21.2% | viability, T/C [28]: 9.28% | viability, T/C [29]: 2.95% | viability, T/C [30]: 0.72%

O=C(C=Cc1cccc(S(=O)(=O)Nc2ccccc2)c1)NO + NC1CC1c1ccc(-c2cccc(O)c2)cc1
pIC50 (second compound 0.1 µM): 6.62 | pIC50 (second compound 0.316 µM): 6.64 | pIC50 (second compound 1 µM): 6.66 | pIC50 (second compound 3.16 µM): 6.67 | pIC50 (second compound 10 µM): 6.85 | viability, T/C [1]: 106% | viability, T/C [2]: 103% | viability, T/C [3]: 102% | viability, T/C [4]: 5.9% | viability, T/C [5]: 2.2% | viability, T/C [6]: 104% | viability, T/C [7]: 102% | viability, T/C [8]: 105% | viability, T/C [9]: 96.9% | viability, T/C [10]: 4.4% | viability, T/C [11]: 1.16% | viability, T/C [12]: 99.1% | viability, T/C [13]: 100% | viability, T/C [14]: 102% | viability, T/C [15]: 95.6% | viability, T/C [16]: 3.61% | viability, T/C [17]: 0.8% | viability, T/C [18]: 96.4% | viability, T/C [19]: 98.5% | viability, T/C [20]: 101% | viability, T/C [21]: 89.8% | viability, T/C [22]: 2.99% | viability, T/C [23]: 1.26% | viability, T/C [24]: 94.5% | viability, T/C [25]: 84.5% | viability, T/C [26]: 82% | viability, T/C [27]: 59.1% | viability, T/C [28]: 2.72% | viability, T/C [29]: 0.89% | viability, T/C [30]: 93.5%

From PubChem BioAssay AID1918948 (Molecular Pharmacology Branch, DTP, NCI, 2023)
